# Experimental data published in PubChem BioAssay (NCI).
# “And” between values parts separate entries of the source, which are not always exact repeats. Equal entries are not always repeated.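 All cell lines were grown in 96-well plates and treated with compound for 48 hours. GI50 is the concentration that inhibits growth by half. Definition used: TGI = concentration required for complete inhibition of growth.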
# How the values were obtained:
# Test in all cases: NCI-60 cell line screen, 48 h
# OVCAR-3 ovarian = system: OVCAR-3 ovarian
# MDA-MB-231 breast = system: MDA-MB-231 breast
# HOP-92 NSCLC = system: HOP-92 NSCLC
# MDA-N = system: MDA-N
# OVCAR-4 ovarian = system: OVCAR-4 ovarian
# CAKI-1 renal = system: CAKI-1 renal
# NCI-H522 lung = system: NCI-H522 lung
# RPMI-8226 leukemia = system: RPMI-8226 leukemia
# IGROV1 ovarian = system: IGROV1 ovarian
# M19-MEL melanoma = system: M19-MEL melanoma
Compound,TGI (OVCAR-3 ovarian),TGI (MDA-MB-231 breast),TGI (HOP-92 NSCLC),TGI (MDA-N),TGI (OVCAR-4 ovarian),TGI (CAKI-1 renal),TGI (NCI-H522 lung),TGI (RPMI-8226 leukemia),TGI (IGROV1 ovarian),TGI (M19-MEL melanoma),GI50 (IGROV1 ovarian),GI50 (OVCAR-4 ovarian),GI50 (NCI-H522 lung),GI50 (RPMI-8226 leukemia)
CCCCCCCCCCCCOCC(COP(=O)(O)OCCN=[N+]=[N-])OC(=O)CCCCCCCCCCC (stereo unspecified),> 100 µM,> 100 µM,> 100 µM,> 100 µM,> 100 µM,> 100 µM,> 100 µM,> 100 µM,,,,,,
CCCCCCCCCCCC1=C(O)C(=O)C(CC2=C(O)C(=O)C(CCCCCCCCCCC)=C(O)C2=O)=C(O)C1=O,,> 100 µM,55.2 µM,> 100 µM,> 100 µM,> 100 µM,> 100 µM,,> 100 µM,,,,,
NC1CCC2(O)c3ccccc3C2C1 (stereo unspecified),,,,,> 100 µM,,> 100 µM,> 100 µM,,> 100 µM,,,,
O=C1Nc2noc(=O)nc2NO1,> 200 µM,> 200 µM,> 200 µM,> 200 µM,> 200 µM,> 200 µM,> 200 µM,> 200 µM,> 200 µM,,,,,
CC[C@]1(c2ccc3c(c2)OCO3)C=[N+]([O-])O[C@H](OC2CCCC2(c2ccccc2)c2ccccc2)[C@@H]1OC(C)=O (stereo partly specified),3.42 µM,> 21.7 µM,76.1 µM,> 30.2 µM,10.1 µM,> 100 µM,4.78 µM,,> 21.5 µM,,,,,
C/C(=N\NC(=S)NC(C)(C)C)c1nc2ncccc2[nH]1,> 100 µM,> 100 µM,42.9 µM,> 100 µM,> 100 µM,16.4 µM,51.2 µM,> 100 µM,50.6 µM,,,,,
COc1ccc(C2C(=O)c3ccc(OC)cc3OC2c2cccnc2)cc1 (stereo unspecified),> 100 µM,> 100 µM,97.1 µM,> 100 µM,> 100 µM,> 100 µM,> 100 µM,> 100 µM,> 100 µM,,,,,
O=C1/C(=C\c2cccc(Oc3ccccc3)c2)SC(c2ccccc2)N1c1cc(Cl)ccc1Cl (stereo unspecified),77.4 µM,> 100 µM,74.4 µM,45.5 µM,> 100 µM,> 100 µM,53 µM,98.7 µM,> 100 µM,,,,,
CCOC(=O)CNC(=O)c1[nH]cnc1/N=N/N(C)C,> 100 µM,,,,> 100 µM,> 100 µM,> 100 µM,> 100 µM,> 100 µM,> 100 µM,,,,
CCCCCCCCCCCCCCCCNc1nc(=O)n(C2OC(C)C(O)C2O)cc1F (stereo unspecified),34.8 µM,42 µM,45.7 µM,39.3 µM,50.8 µM,41.8 µM,39 µM,33.9 µM,37.6 µM,,,,,
CC(C)Oc1cccc(N2C(CCc3c[nH]c4ccc(Br)cc34)=NS(=O)(=O)c3cnccc32)c1,> 100 µM,> 100 µM,> 100 µM,> 100 µM,> 100 µM,> 100 µM,> 100 µM,> 100 µM,,,,,,
BrC1(c2ccccc2)C[n+]2c(-c3ccccc3)cc(-c3ccccc3)cc2-c2ccccc21 (stereo unspecified),0.466 µM,1.63 µM,3.7 µM,1.69 µM,28 µM,9.66 µM,11.3 µM,1.13 µM,5.14 µM,,,,,
Clc1[nH]nc2ccccc12,> 100 µM,> 100 µM,> 100 µM,> 100 µM,> 100 µM,,> 100 µM,> 100 µM,> 100 µM,,,,,
CCNC(=S)N/N=C(/C)c1cccc(/C(C)=N\NC(=S)NCC)n1,> 94 µM,> 84.2 µM,24.6 µM,> 45.8 µM,> 100 µM,74.1 µM,24.5 µM,25.7 µM,> 64 µM,,,,,
COc1ccc(S(=O)(=O)NC(CCC(=O)NC(N)=O)C(=O)NC(N)=O)cc1 (stereo unspecified),> 100 µM,> 100 µM,> 100 µM,> 100 µM,> 100 µM,> 100 µM,> 100 µM,> 100 µM,> 100 µM,,,,,
CC(=O)c1c(-c2ccc(Cl)cc2)c(C#N)c(=S)n(C2OC(CO)C(O)C(O)C2O)c1C (stereo unspecified),> 100 µM,> 100 µM,65.6 µM,86.8 µM,> 100 µM,,> 100 µM,,> 100 µM,,,,,
CCOC(=O)C(Cc1ccc(N=NN(C)C)cc1)NC(=O)CC1c2ccccc2-c2ccccc21 (stereo unspecified),> 100 µM,,,,> 100 µM,> 100 µM,> 100 µM,> 100 µM,> 100 µM,> 100 µM,,,,
O=c1c2ccc(Cl)cc2oc2c(CSc3ccccc3)cccc12,> 100 µM,> 100 µM,> 74.9 µM,> 100 µM,> 100 µM,> 79.7 µM,> 53.1 µM,81.3 µM,> 52 µM,,,,,
CC(=O)Oc1cc2c(cc1OCC(F)(F)F)[C@H]1CC[C@]3(C)[C@@H](OC(C)=O)CC[C@H]3[C@@H]1CC2=O,45.6 µM,60.2 µM,40.2 µM,> 100 µM,63.8 µM,47 µM,> 70 µM,68.8 µM,> 66.8 µM,,,,,
COc1ccccc1N=Nc1c(O)ccc2ccccc12,> 100 µM,> 100 µM,56.3 µM and 42.5 µM,> 100 µM,62.9 µM and 95.2 µM,38.8 µM and 48.6 µM,> 100 µM,> 100 µM,> 100 µM,,3.93 µM and 35.4 µM,10.2 µM and 35.4 µM,> 100 µM and 41.8 µM,30.4 µM and > 100 µM
Cc1nc(C(=Nc2ccc(Br)cc2)Nn2cnnc2)no1,> 100 µM,> 100 µM,> 100 µM,> 100 µM,> 100 µM,> 100 µM,> 100 µM,> 100 µM,> 100 µM,,,,,
CC1=NC(=N)N=C(C)C1N=Nc1ccc2nc(C)[nH]c2c1 (stereo unspecified),> 100 µM,> 100 µM,> 100 µM,> 100 µM,> 100 µM,> 100 µM,> 100 µM,> 100 µM,> 100 µM,,,,,
Cc1cc2nc(N3C(=O)/C(=C/Cc4ccco4)N=C3c3ccccc3)sc2cc1C,> 100 µM,> 100 µM,60.5 µM,30 µM,> 100 µM,> 100 µM,,> 100 µM,> 100 µM,,,,,
CC(C)=CC1C(C(=O)OCc2cc3c(cc2Cl)OCO3)C1(C)C (stereo unspecified),> 100 µM,86.6 µM,> 100 µM,81.5 µM,> 100 µM,> 100 µM,44.2 µM,,87.5 µM,,,,,
